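All cell lines were grown in 96-well plates and treated with compound for 48 hours. The concentration for 50% growth inhibition is given as GI50. At the TGI there is no net growth.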
Columns and labels:
Assay in all cases: NCI tumour cell line growth inhibition, 48 h
DU-145 prostate = tested on: DU-145 prostate
MALME-3M melanoma = tested on: MALME-3M melanoma
RXF 393 renal = tested on: RXF 393 renal
SNB-19 CNS = tested on: SNB-19 CNS
MOLT-4 leukemia = tested on: MOLT-4 leukemia
MCF7 breast = tested on: MCF7 breast
NCI/ADR-RES ovarian = tested on: NCI/ADR-RES ovarian
PC-3 prostate = tested on: PC-3 prostate
LOX IMVI melanoma = tested on: LOX IMVI melanoma
NCI-H226 lung = tested on: NCI-H226 lung
SF-268 CNS = tested on: SF-268 CNS
SK-MEL-28 melanoma = tested on: SK-MEL-28 melanoma
SK-OV-3 ovarian = tested on: SK-OV-3 ovarian
SK-MEL-5 melanoma = tested on: SK-MEL-5 melanoma
OVCAR-3 ovarian = tested on: OVCAR-3 ovarian
A498 renal = tested on: A498 renal
OVCAR-8 ovarian = tested on: OVCAR-8 ovarian
SF-295 CNS = tested on: SF-295 CNS
NCI-H460 lung = tested on: NCI-H460 lung
OVCAR-5 ovarian = tested on: OVCAR-5 ovarian
SF-539 CNS = tested on: SF-539 CNS
EKVX NSCLC = tested on: EKVX NSCLC
CCRF-CEM leukemia = tested on: CCRF-CEM leukemia
UACC-257 melanoma = tested on: UACC-257 melanoma
SNB-75 CNS = tested on: SNB-75 CNS
MDA-MB-435 = tested on: MDA-MB-435
HCT-15 colon = tested on: HCT-15 colon
HCC-2998 colon = tested on: HCC-2998 colon
TK-10 renal = tested on: TK-10 renal
786-0 renal = tested on: 786-0 renal
HL-60(TB) leukemia = tested on: HL-60(TB) leukemia
HOP-62 NSCLC = tested on: HOP-62 NSCLC
T-47D breast = tested on: T-47D breast
SK-MEL-2 melanoma = tested on: SK-MEL-2 melanoma
KM12 colon = tested on: KM12 colon
HOP-92 NSCLC = tested on: HOP-92 NSCLC
U251 CNS = tested on: U251 CNS
COLO 205 colon = tested on: COLO 205 colon
IGROV1 ovarian = tested on: IGROV1 ovarian
SR leukemia = tested on: SR leukemia
UACC-62 melanoma = tested on: UACC-62 melanoma
HS 578T breast = tested on: HS 578T breast
SW-620 colon = tested on: SW-620 colon
NCI-H522 lung = tested on: NCI-H522 lung
NCI-H23 lung = tested on: NCI-H23 lung
MDA-MB-231 breast = tested on: MDA-MB-231 breast
BT-549 breast = tested on: BT-549 breast
K-562 leukemia = tested on: K-562 leukemia
A549 NSCLC = tested on: A549 NSCLC
UO-31 renal = tested on: UO-31 renal
HT29 colon = tested on: HT29 colon
CAKI-1 renal = tested on: CAKI-1 renal
ACHN renal = tested on: ACHN renal
HCT-116 colon = tested on: HCT-116 colon
OVCAR-4 ovarian = tested on: OVCAR-4 ovarian
RPMI-8226 leukemia = tested on: RPMI-8226 leukemia
SN12C renal = tested on: SN12C renal

## C#CCN(C)CCCOc1ccc(NCc2ccc(C(=O)NO)cc2)cc1Cl
DU-145 prostate
  GI50: 2.19 µM
  TGI: 14.8 µM
MALME-3M melanoma
  GI50: 1.11 µM
  TGI: 6.9 µM
RXF 393 renal
  GI50: 1.22 µM
  TGI: 3.2 µM
SNB-19 CNS
  GI50: 3.08 µM
  TGI: 16.8 µM
MOLT-4 leukemia
  GI50: 1.46 µM
  TGI: > 100 µM
MCF7 breast
  GI50: 2.83 µM
  TGI: 21 µM
NCI/ADR-RES ovarian
  GI50: 0.738 µM
  TGI: > 100 µM
PC-3 prostate
  GI50: 1.94 µM
  TGI: 22.8 µM
LOX IMVI melanoma
  GI50: 1.76 µM
  TGI: 3.46 µM
NCI-H226 lung
  GI50: 2.45 µM
  TGI: 16.9 µM
SF-268 CNS
  GI50: 2.72 µM
  TGI: 22.9 µM
SK-MEL-28 melanoma
  GI50: 2.57 µM
  TGI: 11.5 µM
SK-OV-3 ovarian
  GI50: 2.01 µM
  TGI: 10.8 µM
SK-MEL-5 melanoma
  GI50: 1.51 µM
  TGI: 3.41 µM
OVCAR-3 ovarian
  GI50: 2.06 µM
  TGI: 18.2 µM
A498 renal
  GI50: 1.11 µM
  TGI: 2.75 µM
OVCAR-8 ovarian
  GI50: 1.4 µM
  TGI: > 100 µM
SF-295 CNS
  GI50: 1.84 µM
  TGI: 3.8 µM
NCI-H460 lung
  GI50: 2.08 µM
  TGI: 14.6 µM
OVCAR-5 ovarian
  GI50: 2.38 µM
  TGI: 18.4 µM
SF-539 CNS
  GI50: 2.05 µM
  TGI: 10.3 µM
EKVX NSCLC
  GI50: 3.6 µM
  TGI: 22.5 µM
CCRF-CEM leukemia
  GI50: 0.632 µM
  TGI: > 100 µM
UACC-257 melanoma
  GI50: 1.42 µM
  TGI: 31.1 µM
SNB-75 CNS
  GI50: 2.28 µM
  TGI: 16.6 µM
MDA-MB-435
  GI50: 2.59 µM
  TGI: 12.4 µM
HCT-15 colon
  GI50: 0.674 µM
  TGI: 19.4 µM
HCC-2998 colon
  GI50: 2.66 µM
  TGI: 12.3 µM
TK-10 renal
  GI50: 1.91 µM
  TGI: 10.1 µM
786-0 renal
  GI50: 3.18 µM
  TGI: 14.3 µM
HL-60(TB) leukemia
  GI50: 1.37 µM
  TGI: 44.4 µM
HOP-62 NSCLC
  GI50: 2.8 µM
  TGI: 16.3 µM
T-47D breast
  GI50: 1.85 µM
  TGI: 18.7 µM
SK-MEL-2 melanoma
  GI50: 2.77 µM
  TGI: 8.66 µM
KM12 colon
  GI50: 2.67 µM
  TGI: 12.6 µM
HOP-92 NSCLC
  GI50: 1.37 µM
  TGI: 5.92 µM
U251 CNS
  GI50: 2.16 µM
  TGI: 10 µM
COLO 205 colon
  GI50: 2.38 µM
  TGI: 6.92 µM
IGROV1 ovarian
  GI50: 1.41 µM
  TGI: 4.47 µM
SR leukemia
  GI50: 0.724 µM
  TGI: > 100 µM
UACC-62 melanoma
  GI50: 1.61 µM
  TGI: 5.27 µM
HS 578T breast
  GI50: 1.85 µM
  TGI: 8.63 µM
SW-620 colon
  GI50: 2.18 µM
  TGI: 10.6 µM
NCI-H522 lung
  GI50: 1.07 µM
  TGI: 6.51 µM
NCI-H23 lung
  GI50: 2.18 µM
  TGI: 5.83 µM
MDA-MB-231 breast
  GI50: 2.1 µM
  TGI: 13.6 µM
BT-549 breast
  GI50: 2.76 µM
  TGI: 37.3 µM
K-562 leukemia
  GI50: 2.16 µM
  TGI: > 100 µM
A549 NSCLC
  GI50: 2.71 µM
  TGI: 15.3 µM
UO-31 renal
  GI50: 0.5 µM
  TGI: 2.78 µM
HT29 colon
  GI50: 2.96 µM
  TGI: 20.5 µM
CAKI-1 renal
  GI50: 2.33 µM
  TGI: 11.7 µM
ACHN renal
  GI50: 2.62 µM
  TGI: 10.5 µM
HCT-116 colon
  GI50: 1.43 µM
  TGI: 10.9 µM
OVCAR-4 ovarian
  GI50: 3.4 µM
  TGI: > 100 µM
RPMI-8226 leukemia
  GI50: 1.56 µM
  TGI: 12.3 µM
SN12C renal
  GI50: 2.69 µM
  TGI: 17.4 µM

— PubChem BioAssay (NCI)
